# Data taken from US20070232563A1, “Method for Enhancing Biological Activity and/or Expanding Suitable Region for Biological Activity of Living Body Contacting with Aqueous Environment” (Kabushiki Kaisha Hayashibara Seibutsu Kagaku Kenky, priority 2004, published 2007).
# Experiments:
# [1] = tested on: unpolished rice; assay: Germination of unpolished rice in aqueous mineral solution; assay type: in vivo
# Method: Suitable mineral range of aqueous mineral solutions containing saccharides was examined by using unpolished rice as an agricultural product. In detail, a commercialized purified salt as a mineral was dissolved in tap water to give a final concentration of 0.5, 1.0, 1.5, or 2.0 as described in the following Table 6. α,α-Trehalose or α-maltosyl α,α-trehalose was dissolved in the resulting solutions to give a final concentration of 1 w/v %, on a dry solid basis. Absorbent cotton was allowed to absorb the resulting solution in an appropriate amount and placed in a plastic laboratory dish with a cover. Commercialized unpolished rice grains were placed on the cotton in the dish by 20 grains per group and kept at ambient temperature (25° C.) under a light-shaded condition by covering with a black cloth. As controls, an aqueous mineral solution without saccharides, and water without saccharides and minerals were prepared. […] Effective concentration of α,α-trehalose or α-maltosyl α,α-trehalose on expanding suitable region for biological activity of unpolished rice grains were determined by examining the number of germinated unpolished rice grains and germination time as an index in accordance with the method in Experiment 6 in the aqueous mineral solution with mineral concentration of 1.5 w/v %, where α,α-trehalose or α-maltosyl α,α-trehalose was effective in Experiment 6, containing α,α-trehalose or α-maltosyl α,α-trehalose in a concentration of 0.01, 0.1, 1, 2, 3, 4 or 6 w/v %, on a dry solid basis. As a control, water without saccharides or minerals was used.
# [2] = tested on: short-necked clam (Ruditapes philippinarum); assay: Biological activity of short-necked clam (aqueduct extension score) in aqueous mineral solutions; assay type: in vivo; conditions: for Judgment score of biological activity: Experiment 2; for Judgment score for biological activity: total of 18 clams, 16 h
# Method: Suitable region for biological activity of short-necked clam (Ruditapes philippinarum), as a fish or shellfish living in seawater, was examined by adding various saccharides to mineral aqueous solutions with various concentrations. In detail, solar salt (85% by weight of sodium chloride and 15% by weight of magnesium) as minerals was dissolved in running water kept in a container for two days to give final concentrations described in the following Table 1. Saccharide (any one of D-glucose, maltose, sucrose, maltitol, α,α-trehalose, α-maltosyl α,α-trehalose, maltotetraose and cyclic tetrasaccharide) was dissolved in the resulting salt solutions to give a final concentration of 1 w/v %, on a dry solid basis. Each of the resulting solutions was placed in a plastic bat. Eighteen pre-selected active short-necked clam in one group were placed in the bat. The bat was shaded with a black cloth and left at ambient temperature (18° C.) for 16 hours. As a control, an aqueous solar salt solution without any saccharides was prepared. Saccharides except for α-maltosyl α,α-trehalose as a saccharide derivatives thereof and cyclic tetrasaccharide were chosen from commercialized products. α-Maltosyl α,α-trehalose as saccharide derivatives of α,α-trehalose in a powder form with a purity of 98 w/w % or over was prepared by the method disclosed in Experiment 4 in Japanese Patent Kokai No. 143876/1995. Cyclic tetrasaccharide in a crystalline form with a purity of 98 w/w % or over, on a dry solid basis, was prepared by the method disclosed in Example A-7 in International Patent Publication No. WO02/10361. Influence of various saccharides was judged by observing the degree of extending aqueduct of the shellfish; 3 points: its aqueduct is well extended; 2 points: its aqueduct is slightly extended; 1 point: its aqueduct is not extended but its shells are opened; 0 point: its shells are closed. The effect on biological activity was judged by the total point of 18 shellfishes. To investigate the effective concentration range of α,α-trehalose or α-maltosyl α,α-trehalose against a mineral solution with a concentration of 1.5 w/v % or 4.5 w/v %, where α,α-trehalose or α-maltosyl α,α-trehalose was remarkably effective in Experiment 1, the following experiment using α,α-trehalose or α-maltosyl α,α-trehalose at a concentration of 0.01, 0.1, 1, 2, 3 or 4 w/v % was carried out according to the method in Experiment 1. As a control, mineral aqueous solutions with a concentration of 1.5 w/v % or 4.5 w/v % without any of the saccharides were prepared and carried out in the same manner.
# [3] = mineral 1.5 w/v %, saccharide 1 w/v %
# [4] = mineral 4.5 w/v %, saccharide 1 w/v %
smiles,measurement,setting,value
"OC[C@H]1O[C@H](O[C@H]2O[C@H](CO)[C@@H](O[C@H]3O[C@H](CO)[C@@H](O[C@H]4O[C@H](CO)[C@@H](O)[C@H](O)[C@H]4O)[C@H](O)[C@H]3O)[C@H](O)[C@H]2O)[C@H](O)[C@@H](O)[C@@H]1O [α-Maltosyl α,α-trehalose, α-maltosyl α,α-trehalose]",Germinated grains (Number),"[1]; Experiment 7, mineral 1.5 w/v %, saccharide 0.01 w/v %, 48 hours",0
same,Germinated grains (Number),"[1]; Experiment 7, mineral 1.5 w/v %, saccharide 0.01 w/v %, 72 hours",2
same,Germinated grains (Number),"[1]; Experiment 7, mineral 1.5 w/v %, saccharide 0.01 w/v %, 96 hours",2
same,Germinated grains (Number),"[1]; Experiment 7, mineral 1.5 w/v %, saccharide 0.01 w/v %, 120 hours",2
same,Germinated grains (Number),"[1]; Experiment 7, mineral 1.5 w/v %, saccharide 0.1 w/v %, 48 hours",0
same,Germinated grains (Number),"[1]; Experiment 7, mineral 1.5 w/v %, saccharide 0.1 w/v %, 72 hours",2
same,Germinated grains (Number),"[1]; Experiment 7, mineral 1.5 w/v %, saccharide 0.1 w/v %, 96 hours",4
same,Germinated grains (Number),"[1]; Experiment 7, mineral 1.5 w/v %, saccharide 0.1 w/v %, 120 hours",5
same,Germinated grains (Number),"[1]; Experiment 7, mineral 1.5 w/v %, saccharide 1 w/v %, 48 hours",1
same,Germinated grains (Number),"[1]; Experiment 7, mineral 1.5 w/v %, saccharide 1 w/v %, 72 hours",3
same,Germinated grains (Number),"[1]; Experiment 7, mineral 1.5 w/v %, saccharide 1 w/v %, 96 hours",5
same,Germinated grains (Number),"[1]; Experiment 7, mineral 1.5 w/v %, saccharide 1 w/v %, 120 hours",5
same,Germinated grains (Number),"[1]; Experiment 7, mineral 1.5 w/v %, saccharide 2 w/v %, 48 hours",1
same,Germinated grains (Number),"[1]; Experiment 7, mineral 1.5 w/v %, saccharide 2 w/v %, 72 hours",6
same,Germinated grains (Number),"[1]; Experiment 7, mineral 1.5 w/v %, saccharide 2 w/v %, 96 hours",6
same,Germinated grains (Number),"[1]; Experiment 7, mineral 1.5 w/v %, saccharide 2 w/v %, 120 hours",6
same,Germinated grains (Number),"[1]; Experiment 7, mineral 1.5 w/v %, saccharide 3 w/v %, 48 hours",1
same,Germinated grains (Number),"[1]; Experiment 7, mineral 1.5 w/v %, saccharide 3 w/v %, 72 hours",4
same,Germinated grains (Number),"[1]; Experiment 7, mineral 1.5 w/v %, saccharide 3 w/v %, 96 hours",5
same,Germinated grains (Number),"[1]; Experiment 7, mineral 1.5 w/v %, saccharide 3 w/v %, 120 hours",5
same,Germinated grains (Number),"[1]; Experiment 7, mineral 1.5 w/v %, saccharide 4 w/v %, 48 hours",0
same,Germinated grains (Number),"[1]; Experiment 7, mineral 1.5 w/v %, saccharide 4 w/v %, 72 hours",3
same,Germinated grains (Number),"[1]; Experiment 7, mineral 1.5 w/v %, saccharide 4 w/v %, 96 hours",3
same,Germinated grains (Number),"[1]; Experiment 7, mineral 1.5 w/v %, saccharide 4 w/v %, 120 hours",3
same,Germinated grains (Number),"[1]; Experiment 7, mineral 1.5 w/v %, saccharide 6 w/v %, 48 hours",0
same,Germinated grains (Number),"[1]; Experiment 7, mineral 1.5 w/v %, saccharide 6 w/v %, 72 hours",0
same,Germinated grains (Number),"[1]; Experiment 7, mineral 1.5 w/v %, saccharide 6 w/v %, 96 hours",1
same,Germinated grains (Number),"[1]; Experiment 7, mineral 1.5 w/v %, saccharide 6 w/v %, 120 hours",1
same,Germinated grains (Number),"[1]; mineral 0.5 w/v %, saccharide 1 w/v %, 24 hours, 20 grains",0
same,Germinated grains (Number),"[1]; mineral 0.5 w/v %, saccharide 1 w/v %, 48 hours, 20 grains",15
same,Germinated grains (Number),"[1]; mineral 0.5 w/v %, saccharide 1 w/v %, 72 hours, 20 grains",19
same,Germinated grains (Number),"[1]; mineral 0.5 w/v %, saccharide 1 w/v %, 96 hours, 20 grains",20
same,Germinated grains (Number),"[1]; mineral 0.5 w/v %, saccharide 1 w/v %, 120 hours, 20 grains",20
same,Germinated grains (Number),"[1]; mineral 1.0 w/v %, saccharide 1 w/v %, 24 hours, 20 grains",0
same,Germinated grains (Number),"[1]; mineral 1.0 w/v %, saccharide 1 w/v %, 48 hours, 20 grains",3
same,Germinated grains (Number),"[1]; mineral 1.0 w/v %, saccharide 1 w/v %, 72 hours, 20 grains",10
same,Germinated grains (Number),"[1]; mineral 1.0 w/v %, saccharide 1 w/v %, 96 hours, 20 grains",16
same,Germinated grains (Number),"[1]; mineral 1.0 w/v %, saccharide 1 w/v %, 120 hours, 20 grains",16
same,Germinated grains (Number),"[1]; mineral 1.5 w/v %, saccharide 1 w/v %, 24 hours, 20 grains",0
same,Germinated grains (Number),"[1]; mineral 1.5 w/v %, saccharide 1 w/v %, 48 hours, 20 grains",1
same,Germinated grains (Number),"[1]; mineral 1.5 w/v %, saccharide 1 w/v %, 72 hours, 20 grains",3
same,Germinated grains (Number),"[1]; mineral 1.5 w/v %, saccharide 1 w/v %, 96 hours, 20 grains",5
same,Germinated grains (Number),"[1]; mineral 1.5 w/v %, saccharide 1 w/v %, 120 hours, 20 grains",5
same,Germinated grains (Number),"[1]; mineral 2.0 w/v %, saccharide 1 w/v %, 24 hours, 20 grains",0
same,Germinated grains (Number),"[1]; mineral 2.0 w/v %, saccharide 1 w/v %, 48 hours, 20 grains",0
same,Germinated grains (Number),"[1]; mineral 2.0 w/v %, saccharide 1 w/v %, 72 hours, 20 grains",0
same,Germinated grains (Number),"[1]; mineral 2.0 w/v %, saccharide 1 w/v %, 96 hours, 20 grains",0
same,Germinated grains (Number),"[1]; mineral 2.0 w/v %, saccharide 1 w/v %, 120 hours, 20 grains",0
same,Judgment score of biological activity,"[2]; mineral 1.5 w/v %, saccharide 0.01 w/v %",18
same,Judgment score of biological activity,"[2]; mineral 1.5 w/v %, saccharide 0.1 w/v %",35
same,Judgment score of biological activity,[2]; [3],41
same,Judgment score of biological activity,"[2]; mineral 1.5 w/v %, saccharide 2 w/v %",43
same,Judgment score of biological activity,"[2]; mineral 1.5 w/v %, saccharide 3 w/v %",34
same,Judgment score of biological activity,"[2]; mineral 1.5 w/v %, saccharide 4 w/v %",16
same,Judgment score of biological activity,"[2]; mineral 4.5 w/v %, saccharide 0.01 w/v %",16
same,Judgment score of biological activity,"[2]; mineral 4.5 w/v %, saccharide 0.1 w/v %",37
same,Judgment score of biological activity,[2]; [4],44
same,Judgment score of biological activity,"[2]; mineral 4.5 w/v %, saccharide 2 w/v %",45
same,Judgment score of biological activity,"[2]; mineral 4.5 w/v %, saccharide 3 w/v %",30
same,Judgment score of biological activity,"[2]; mineral 4.5 w/v %, saccharide 4 w/v %",15
same,Judgment score for biological activity,"[2]; mineral 0 w/v %, saccharide 1 w/v %",11
same,Judgment score for biological activity,"[2]; mineral 0.5 w/v %, saccharide 1 w/v %",14
same,Judgment score for biological activity,"[2]; mineral 1.0 w/v %, saccharide 1 w/v %",36
same,Judgment score for biological activity,[2]; [3],40
same,Judgment score for biological activity,"[2]; mineral 2.0 w/v %, saccharide 1 w/v %",45
same,Judgment score for biological activity,"[2]; mineral 2.5 w/v %, saccharide 1 w/v %",49
same,Judgment score for biological activity,"[2]; mineral 3.0 w/v %, saccharide 1 w/v %",53
same,Judgment score for biological activity,"[2]; mineral 3.5 w/v %, saccharide 1 w/v %",50
same,Judgment score for biological activity,"[2]; mineral 4.0 w/v %, saccharide 1 w/v %",47
same,Judgment score for biological activity,[2]; [4],45
same,Judgment score for biological activity,"[2]; mineral 5.0 w/v %, saccharide 1 w/v %",33
same,Judgment score for biological activity,"[2]; mineral 5.5 w/v %, saccharide 1 w/v %",11
same,Judgment score for biological activity,"[2]; mineral 6.0 w/v %, saccharide 1 w/v %",2
